Key:
[1] = target: T1, Alpha-1A adrenergic receptor (Homo sapiens, UniProt P35348); type: functional, cell-based
T1 sequence (P35348 whole entry): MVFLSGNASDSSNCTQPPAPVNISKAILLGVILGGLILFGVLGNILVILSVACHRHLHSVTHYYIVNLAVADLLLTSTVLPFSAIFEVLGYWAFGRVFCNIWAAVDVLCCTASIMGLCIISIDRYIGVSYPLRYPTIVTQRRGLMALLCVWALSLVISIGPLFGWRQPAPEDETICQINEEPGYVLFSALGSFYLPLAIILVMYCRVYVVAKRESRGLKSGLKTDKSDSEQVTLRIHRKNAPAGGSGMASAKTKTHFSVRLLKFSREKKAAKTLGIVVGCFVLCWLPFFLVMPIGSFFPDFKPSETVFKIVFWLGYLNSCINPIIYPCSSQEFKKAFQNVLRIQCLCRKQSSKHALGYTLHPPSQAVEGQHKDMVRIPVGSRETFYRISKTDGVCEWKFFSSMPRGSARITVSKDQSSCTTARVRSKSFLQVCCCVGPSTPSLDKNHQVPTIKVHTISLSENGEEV

[2] = target: T2, Alpha-2A adrenergic receptor (Homo sapiens, UniProt P08913)
T2 sequence (P08913 whole entry): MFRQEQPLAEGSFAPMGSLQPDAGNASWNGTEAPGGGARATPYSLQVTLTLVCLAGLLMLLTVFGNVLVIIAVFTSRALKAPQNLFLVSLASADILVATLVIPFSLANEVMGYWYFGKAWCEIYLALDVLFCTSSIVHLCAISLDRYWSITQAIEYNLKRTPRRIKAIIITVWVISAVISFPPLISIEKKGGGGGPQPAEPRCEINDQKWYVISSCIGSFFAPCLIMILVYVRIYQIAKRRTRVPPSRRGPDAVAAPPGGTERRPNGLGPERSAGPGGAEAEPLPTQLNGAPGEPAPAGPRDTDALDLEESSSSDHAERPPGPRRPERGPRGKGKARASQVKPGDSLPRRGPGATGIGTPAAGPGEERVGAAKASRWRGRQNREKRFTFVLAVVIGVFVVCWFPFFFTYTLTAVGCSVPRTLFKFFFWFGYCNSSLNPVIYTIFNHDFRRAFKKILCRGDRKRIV

[3] = target: T3, Thromboxane A2 receptor (Homo sapiens, UniProt P21731); type: functional, cell-based
T3 sequence (P21731 whole entry): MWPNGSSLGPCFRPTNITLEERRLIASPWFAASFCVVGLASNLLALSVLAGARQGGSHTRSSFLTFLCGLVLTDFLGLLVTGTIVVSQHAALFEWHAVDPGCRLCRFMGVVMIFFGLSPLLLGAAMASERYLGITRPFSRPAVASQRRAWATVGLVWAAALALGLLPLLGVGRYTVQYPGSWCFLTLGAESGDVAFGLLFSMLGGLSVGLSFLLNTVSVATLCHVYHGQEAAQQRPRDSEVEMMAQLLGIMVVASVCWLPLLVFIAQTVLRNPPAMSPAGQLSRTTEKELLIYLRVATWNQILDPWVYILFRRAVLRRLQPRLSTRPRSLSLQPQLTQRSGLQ

[4] = target: T4, Amine oxidase [flavin-containing] A (Homo sapiens, UniProt P21397); type: functional
T4 sequence (P21397 whole entry): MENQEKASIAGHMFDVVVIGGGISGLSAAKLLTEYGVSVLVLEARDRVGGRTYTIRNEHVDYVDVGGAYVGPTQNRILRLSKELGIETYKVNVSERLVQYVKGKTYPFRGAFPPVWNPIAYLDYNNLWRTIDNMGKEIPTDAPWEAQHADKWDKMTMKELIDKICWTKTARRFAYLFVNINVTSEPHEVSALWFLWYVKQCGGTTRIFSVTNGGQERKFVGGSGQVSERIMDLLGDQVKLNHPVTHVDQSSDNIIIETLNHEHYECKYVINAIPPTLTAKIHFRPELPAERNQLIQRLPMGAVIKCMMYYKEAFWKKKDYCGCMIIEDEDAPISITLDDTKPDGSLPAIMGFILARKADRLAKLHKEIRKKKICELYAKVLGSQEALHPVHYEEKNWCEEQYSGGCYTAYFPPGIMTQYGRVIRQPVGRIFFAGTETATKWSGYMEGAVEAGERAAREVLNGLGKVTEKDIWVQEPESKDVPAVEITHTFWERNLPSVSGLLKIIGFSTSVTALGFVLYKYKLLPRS

[5] = target: 5-hydroxytryptamine receptor 2B (Homo sapiens, UniProt P41595); type: functional, cell-based
[6] = target: T5, 5-hydroxytryptamine receptor 1A (Homo sapiens, UniProt P08908)
T5 sequence (P08908 whole entry): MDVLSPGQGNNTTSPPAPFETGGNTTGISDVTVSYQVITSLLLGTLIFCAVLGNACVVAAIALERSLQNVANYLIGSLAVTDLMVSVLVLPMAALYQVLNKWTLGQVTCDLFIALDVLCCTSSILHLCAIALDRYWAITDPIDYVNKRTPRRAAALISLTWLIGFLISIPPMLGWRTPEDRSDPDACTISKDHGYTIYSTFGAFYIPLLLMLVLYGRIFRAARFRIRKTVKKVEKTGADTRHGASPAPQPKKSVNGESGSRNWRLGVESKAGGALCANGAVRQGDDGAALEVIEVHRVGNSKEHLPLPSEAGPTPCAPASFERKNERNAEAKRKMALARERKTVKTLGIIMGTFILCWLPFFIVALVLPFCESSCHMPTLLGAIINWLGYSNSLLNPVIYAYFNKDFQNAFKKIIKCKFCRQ

[7] = target: Prothrombin (Homo sapiens, UniProt P00734); type: functional
[8] = target: T3, Thromboxane A2 receptor; type: functional, cell-based; remark: listed apart in the source
[9] = target: cGMP-inhibited 3',5'-cyclic phosphodiesterase 3A (Homo sapiens, UniProt Q14432); type: functional
[10] = target: 3',5'-cyclic-AMP phosphodiesterase 4A (Homo sapiens, UniProt P27815); type: functional
[11] = target: T1, Alpha-1A adrenergic receptor; type: functional, cell-based; remark: listed apart in the source
Note: assay procedure not described here.

Chain of 5-hydroxytryptamine receptor 2B (P41595 whole entry): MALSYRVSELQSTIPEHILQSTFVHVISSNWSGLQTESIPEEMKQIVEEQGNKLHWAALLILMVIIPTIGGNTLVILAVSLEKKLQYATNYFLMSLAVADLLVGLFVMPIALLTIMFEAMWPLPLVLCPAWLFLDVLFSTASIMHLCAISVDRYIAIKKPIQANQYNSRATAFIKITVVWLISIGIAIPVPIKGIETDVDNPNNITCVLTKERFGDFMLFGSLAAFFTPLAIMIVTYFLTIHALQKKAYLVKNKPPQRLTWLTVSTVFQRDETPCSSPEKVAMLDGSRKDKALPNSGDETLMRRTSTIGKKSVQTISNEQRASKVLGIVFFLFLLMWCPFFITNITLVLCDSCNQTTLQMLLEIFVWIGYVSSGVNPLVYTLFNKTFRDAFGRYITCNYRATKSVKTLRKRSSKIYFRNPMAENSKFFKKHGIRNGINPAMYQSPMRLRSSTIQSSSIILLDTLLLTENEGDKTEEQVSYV
Chain of cGMP-inhibited 3',5'-cyclic phosphodiesterase 3A (Q14432 whole entry): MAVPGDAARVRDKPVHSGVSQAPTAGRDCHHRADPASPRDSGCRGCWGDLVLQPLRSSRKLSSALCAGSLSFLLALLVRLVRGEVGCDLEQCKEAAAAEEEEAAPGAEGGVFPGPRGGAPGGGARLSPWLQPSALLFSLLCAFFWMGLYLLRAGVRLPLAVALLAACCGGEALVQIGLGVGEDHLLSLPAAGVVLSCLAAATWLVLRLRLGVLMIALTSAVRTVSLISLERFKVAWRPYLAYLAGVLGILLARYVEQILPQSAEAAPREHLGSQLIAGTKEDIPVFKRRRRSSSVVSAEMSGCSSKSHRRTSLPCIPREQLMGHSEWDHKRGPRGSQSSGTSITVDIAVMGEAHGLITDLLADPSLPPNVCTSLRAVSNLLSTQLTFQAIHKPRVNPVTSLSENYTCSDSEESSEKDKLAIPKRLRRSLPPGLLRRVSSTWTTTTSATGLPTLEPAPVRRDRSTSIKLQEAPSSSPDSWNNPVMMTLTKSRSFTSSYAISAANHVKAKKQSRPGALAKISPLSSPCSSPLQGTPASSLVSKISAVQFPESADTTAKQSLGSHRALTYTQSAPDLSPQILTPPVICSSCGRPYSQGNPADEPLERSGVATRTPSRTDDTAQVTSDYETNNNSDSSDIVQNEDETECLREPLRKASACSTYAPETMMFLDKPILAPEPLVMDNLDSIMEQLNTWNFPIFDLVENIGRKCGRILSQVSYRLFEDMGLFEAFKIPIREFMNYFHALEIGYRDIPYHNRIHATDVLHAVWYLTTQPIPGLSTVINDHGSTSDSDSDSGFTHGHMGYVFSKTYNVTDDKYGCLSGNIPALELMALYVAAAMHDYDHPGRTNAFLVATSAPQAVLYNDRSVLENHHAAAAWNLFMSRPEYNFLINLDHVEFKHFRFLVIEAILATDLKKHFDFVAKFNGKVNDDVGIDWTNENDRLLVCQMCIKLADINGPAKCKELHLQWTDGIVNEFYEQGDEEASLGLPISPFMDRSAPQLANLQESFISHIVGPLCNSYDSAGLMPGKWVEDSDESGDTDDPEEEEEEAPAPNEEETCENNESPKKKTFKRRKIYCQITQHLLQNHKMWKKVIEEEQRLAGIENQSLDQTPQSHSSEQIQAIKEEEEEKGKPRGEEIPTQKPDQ
Chain of 3',5'-cyclic-AMP phosphodiesterase 4A (P27815 whole entry): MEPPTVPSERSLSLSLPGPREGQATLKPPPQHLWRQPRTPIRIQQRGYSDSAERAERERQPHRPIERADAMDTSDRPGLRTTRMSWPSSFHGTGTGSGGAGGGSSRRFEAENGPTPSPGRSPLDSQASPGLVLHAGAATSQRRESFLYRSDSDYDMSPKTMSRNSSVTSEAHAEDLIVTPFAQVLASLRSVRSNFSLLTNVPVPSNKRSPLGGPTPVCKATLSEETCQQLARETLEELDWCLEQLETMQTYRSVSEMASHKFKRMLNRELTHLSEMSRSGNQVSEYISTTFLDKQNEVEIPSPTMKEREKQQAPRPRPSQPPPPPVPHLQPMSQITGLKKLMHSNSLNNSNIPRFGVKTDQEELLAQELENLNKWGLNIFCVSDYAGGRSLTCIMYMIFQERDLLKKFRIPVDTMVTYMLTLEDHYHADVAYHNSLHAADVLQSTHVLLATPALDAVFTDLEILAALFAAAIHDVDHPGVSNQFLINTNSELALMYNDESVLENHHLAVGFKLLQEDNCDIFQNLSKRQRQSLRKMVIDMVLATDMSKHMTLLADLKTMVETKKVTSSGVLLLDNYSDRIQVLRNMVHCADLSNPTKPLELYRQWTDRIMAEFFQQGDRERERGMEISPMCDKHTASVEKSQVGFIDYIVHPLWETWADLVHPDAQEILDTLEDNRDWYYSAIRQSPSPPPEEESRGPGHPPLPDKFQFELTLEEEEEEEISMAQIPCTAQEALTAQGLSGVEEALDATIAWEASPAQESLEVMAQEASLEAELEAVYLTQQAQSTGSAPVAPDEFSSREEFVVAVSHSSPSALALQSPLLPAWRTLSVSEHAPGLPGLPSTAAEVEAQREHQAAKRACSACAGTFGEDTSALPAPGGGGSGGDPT

| Structure (SMILES) | AC50 [1] [µM] | AC50 [2] [µM] | AC50 [3] [µM] | AC50 [4] [µM] | AC50 [5] [µM] | AC50 [6] [µM] | AC50 [7] [µM] | AC50 [8] [µM] | AC50 [9] [µM] | AC50 [10] [µM] | AC50 [11] [µM] |
| --- | --- | --- | --- | --- | --- | --- | --- | --- | --- | --- | --- |
| Nc1ccc(S(N)(=O)=O)cc1 [SULFANILAMIDE] | > 30 | > 30 | > 30 | > 30 | > 30 | > 30 | > 30 | > 30 | > 30 | > 30 | > 30 |
| CN(C)c1ccc(C(=C2C=CC(=[N+](C)C)C=C2)c2ccc(N(C)C)cc2)cc1 [GENTIAN VIOLET] | 0.845 | 1.43 | > 30 | > 30 | > 30 | 4.24 | 25.2 | 2.03 | > 30 | 13.2 | > 30 |

— ChEMBL document CHEMBL5291721, “A preclinical secondary pharmacology resource illuminates target-adverse drug reaction associations of marketed drugs” (Nat Commun, 2023)
